Entries after “also recorded” stand apart in the source; their conditions may differ.
Legend:
CDK9 [1] = molecular target: T1, CDK9 (Homo sapiens, UniProt P50750); experiment: CDK9 degradation and c-Myc/MCL-1 downregulation in LNCaP cells (immunoblot); assay type: cell-based; parameters: endogenous in cells; host or cells: MOLT4, 293T, K562, NCI-H1299, LNCaP
Protocol: Human T-ALL MOLT4 (Cat. No. CRL-1582), K562 (Cat. No. CCL-243), NCI-H1299 (Cat. No. CRL-5803), NCI-H2228 (Cat. No. CRL-5935), LNCaP (Cat. No. CRL-1740), 22RV1 (Cat. No. CRL-2505), PC3 (Cat. No. CRL-1435), DU145 (Cat. No. HTB-81), and epithelial kidney HEK 293T (293T, Cat. No. ACS-4500) cell lines were recently purchased from American Type Culture Collection (ATCC, Manassas, VA, USA). MOLT4, K562, NCI—H-1299, NCI-H2228, LNCap, and 22RV 1 cell lines were cultured in RPMI 1640 medium (Cat No. 22400-089, Thermo Fisher Scientific, Waltham, MA, USA) supplemented with 10% (v/v) heat-inactivated fetal bovine serum (FBS, Cat. No. S11150H, Atlanta Biologicals, Flowery Branch, GA, USA), 100 U/mL penicillin and 100 pig/mL streptomycin (Pen-Strep, Cat. No. 15140122, Thermo Fisher Scientific). PC3 cells were cultured in complete F—12K medium (Kaighn's modification of Ham's F-12 medium, Cat. No. 30-2004, ATCC) supplemented with 10% (v/v) heat-inactivated FBS, 100 U/mL penicillin, and 100 μg/mL streptomycin. DU145 cells were cultured in complete Eagle's Minimum Essential Medium (EMEM, Cat. No. 30-2003, ATCC) supplemented with 10% (v/v) heat-inactivated FBS, 100 U/mL penicillin, and 100 μg/mL streptomycin. […]
Immunoblot data were quantified using the ImageJ (v 1.53a) software from NIH. […]

PARP = PARP cleavage (apoptosis indicator) in MOLT4 cells; assay type: cell-based, Human; conditions: 6 h
Protocol: (§1) Cells were collected and lysed in RIPA lysis buffer (Cat. #BP-115DG, Boston Bio Products, Ashland, MA, USA) supplemented with protease and phosphatase inhibitor cocktails (Cat. #PPC1010, Sigma-Aldrich, St. Louis, MO, USA). Protein samples were made and immunoblotting was performed as described previously (Khan et al., 2019; Lv et al., 2021). Antibodies purchased from Cell Signaling Technologies (CST) and the dilutions are as follows: Biotin (Cat. No. 5571S, 1:1000), PARP (Cat. No. 9542S, 1:1000), c-Myc (Cat. No. 5605S, 1:1000), MCL1 (Cat. No. 5453S, 1:1000), and ALK (Cat. No. 3791S, 1:1000). KEAP1 antibody was purchased from Proteintech (Cat. No. 10503-2-AP, 1:1000). CDK9 antibody was purchased from Santa Cruz (Cat. No. sc-13130, 1:500). V5-tag antibody was purchased from Bethyl (Cat. No. A190-120P, 1:1000). j-actin antibody was purchased from MP Biomedicals (Cat. No. 8691001, 1:20 000).

CDK9 [2] = molecular target: T1, CDK9; experiment: 955-induced CDK9 degradation in H1299 cells after KEAP1, TRIP12 or TRAF6 knockdown/knockout and KEAP1 rescue; assay type: cell-based; parameters: endogenous in cells; host or cells: MOLT4, 293T, K562, NCI-H1299, LNCaP
Protocol: as §1
To knockout KEAP1, two lentiviral CRISPR knockout plasmids targeting human KEAP1 gene were purchased from Abm (Cat. No. 254911110595). Packaging 293T cells were transfected with KEAP1 single guide RNA (sgRNA) and helper vectors (pMD2.G and psPAX2; Addgene plasmid #12259 and 12260) using Lipofectamine 3000 reagent (Cat. No. L3000015, Thermal Fisher). Medium containing lentiviral particles and 8 µg/mL polybrene (Sigma-Aldrich) was used to infect H1299 cells. Infected cells were selected in medium containing […] puromycin. The sgRNA target sequences are as follows: sg1: […]; sg2: […]. Single clones were selected by serial dilution.
KEAP1-sg1 knockout H1299 (4×10^5) cells were transfected with or without plasmid expressing Halo-KEAP1 (Addgene, a gift from Yimon Aye, plasmid #58240) using Lipofectamine 3000 reagent (Cat. No. L3000015, Thermal Fisher). After 24 h, the cells in each well of 6-well plate were divided into two wells and cultured for additional 16 h.

[3] = system: LNCaP prostate cancer cells and H1299 lung cancer cells; experiment: Cell killing (MTS) with or without KEAP1 siRNA knockdown; assay type: cell-based, Human; conditions: KEAP1 siRNA vs control siRNA 48 h; compound 0.1 mM (LNCaP) or 0.3 mM (H1299) for 24 h
Protocol: FIGS. 19A to 19B show percentages of cell killing in LNCaP (FIG. 19A) and H1299 (FIG. 19B) cells with or without KEAP1 knockdown. LNCaP and H1299 cells were treated with control siRNA or siRNAs targeting KEAP1 for 48 h and then reseeded and treated with indicated compound (0.1 mM for LNCaP cells and 0.3 mM for H1299 cells) for 24 h. The cell viability was then determined by MTS assay. The data are presented as mean±SD from three replicate cell cultures in a representative experiment. Data are representative of two independent experiments. Statistical significance was calculated with unpaired two-tailed Student's t-tests. **P<0.01; ***P<0.001; NS: not significant.
Viability (MTS) assays in various cancer cells followed the methods described in our previous report (Khan et al., 2019). The data were expressed as average % cell viability and fitted in non-linear regression curves using GraphPad Prism 9 (GraphPad Software, La Jolla, CA, USA).

T1 sequence (P50750 whole entry): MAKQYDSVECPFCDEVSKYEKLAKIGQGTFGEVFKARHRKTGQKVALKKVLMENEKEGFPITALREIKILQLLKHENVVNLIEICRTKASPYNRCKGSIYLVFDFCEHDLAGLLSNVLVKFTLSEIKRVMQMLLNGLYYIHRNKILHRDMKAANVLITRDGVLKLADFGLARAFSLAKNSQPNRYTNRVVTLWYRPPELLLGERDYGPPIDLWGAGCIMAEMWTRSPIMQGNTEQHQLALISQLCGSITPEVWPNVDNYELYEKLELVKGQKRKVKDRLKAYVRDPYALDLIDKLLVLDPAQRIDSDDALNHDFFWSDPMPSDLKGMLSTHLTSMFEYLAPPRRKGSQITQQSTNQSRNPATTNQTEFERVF

COc1cc(/C=C/C(=O)N2CCC=CC2=O)cc(OC)c1OCCN1CCN(C(=O)CN2CCC(C(=O)Nc3ncc(SCc4ncc(C(C)(C)C)o4)s3)CC2)CC1 [compound 955, (E)-N-(5-(((5-(tert-butyl)oxazol-2-yl)methyl)thio)thiazol-2-yl)-1-(2-(4-(2-(2,6-dimethoxy-4-(3-oxo-3-(6-oxo-3,6-dihydropyridin-1(2H)-yl)prop-1-en-1-yl)phenoxy)ethyl)piperazin-1-yl)-2-oxoethyl)piperidine-4-carboxamide]
CDK9 degradation and downregulation of c-Myc and MCL-1 (CDK9 [1]): dose-dependent manner; also recorded: potently degraded CDK9 and downregulated c-Myc and MCL-1 | induction of PARP cleavage / apoptotic cell death compared with SNS-032 (PARP): more apoptotic cell death compared with SNS-032; also recorded: more potent in inducing PARP cleavage than SNS-032 | 955-induced CDK9 degradation after KEAP1 knock down/out (siRNA, CRISPR-Cas9) (CDK9 [2]; H1299 cells): blocked after depleting KEAP1 | 955-induced CDK9 degradation after TRIP12 or TRAF6 siRNA knockdown (CDK9 [2]; H1299 cells, 6 h): had no effect | 955-induced CDK9 degradation after ectopic Halo-tagged KEAP1 in KEAP1 stable knockout cells (CDK9 [2]; KEAP1-sg1 knockout H1299 cells, 955 for 6 h): rescued CDK9 degradation | effect of KEAP1 knockdown on cytotoxicity of the compound [3]: attenuated the cytotoxicity
